Laboratory results reported in patent US11767564B2, “Use of SDHA as a prognostic marker and therapeutic target in uveal melanoma” (Board of Regents, The University of Texas System, priority 2017, dated 2023).

Legend:
[1] = test system: monosomy 3 uveal melanoma cell lines; assay: Cell survival analysis with OXPHOS inhibitor IACS-10759; type: cell-based
Description: Cell survival analysis with monosomy and disomy 3 uveal melanoma cells in presence and absence of oxidative phosphorylation (OXPHOS) inhibitor, IACS-10759, was performed. Cells were cultured under ambient oxygen or 1% oxygen. Mitotracker Red dye staining was used to assay the extent of active mitochondria in monosomy 3 and disomy 3 cells. The percent cell survival of uveal melanoma cells treated with increasing concentrations of OXPHOS inhibitor, IACS-10759, was determined.

[2] = test system: monosomy 3 and disomy 3 cells; assay: Percent cell survival with SDHA and/or MIF inhibitors; type: cell-based; settings: simultaneous 20 nM SDHA siRNA and 10 or 25 μM ISO-1; both cell lines (monosomy 3, disomy 3); FIG. 7B
Description: FIGS. 7A-7B: (FIG. 7A) Survival rate of uveal melanoma predicted using TCGA data. SDHA and MIF expression both above median is associated with lowest survival rate. SDHA and MIF both below median is associated with highest survival rate. SDHA below median and MIF above median expression is associated with the second lowest survival rate (p<0.001). (FIG. 7B) In vitro validation of association of SDHA and MIF expression with uveal melanoma cell survival.
Accordingly, the survival rate of uveal melanoma was predicted using TCGA data of SDHA and/or MIF expression. SDHA and MIF expression both above median was associated with lowest survival rate (FIG. 7A). On the other hand, SDHA and MIF both below median was associated with highest survival rate. Thus, both SDHA and MIF expression correlate with survival rate of uveal melanoma patients and may be used for prognosis. The association of SDHA and MID with uveal melanoma survival rate was validated by measuring percent cell survival in monosomy 3 and disomy 3 cells treated with SHDA and/or MIF inhibitors. SDHA was inhibited by 20 nM siRNA and MIF was inhibited by 10 or 25 μM ISO-1.

| Structure (SMILES) | percent cell survival, resistance to inhibitor ([1]; monosomy 3 lines under hypoxic conditions (1% oxygen) or in galactose media) | percent cell survival, resistance to inhibitor ([1]; three monosomy 3 UM cell lines compared to three lines with normal chromosome 3 copy number, increasing concentrations) | percent cell survival [2] |
| --- | --- | --- | --- |
| Cc1nc(-c2nc(-c3ccc(OC(F)(F)F)cc3)no2)nn1Cc1cccc(N2CCC(S(C)(=O)=O)CC2)c1 [IACS-10759] | resistance diminishes | more resistant to IACS-10759 |  |
| COC(=O)CC1CC(c2ccc(O)cc2)=NO1 (stereo not drawn) [ISO-1] |  |  | highest decrease in percent cell survival |
